System: MOLT-4
Test: Growth inhibition of human MOLT4 cells assessed as cell growth at 10 uM incubated for 48 hrs by sulforhodamine B assay relative to control
Format: functional
Conditions: MOLT-4, 48 h, read-out: Activity

**Q.** How did the growth at 10 µM turn out when `COc1cc(Cl)cc(-c2nn(-c3cccc(NC(=O)c4cc(C(F)(F)F)cc(C(F)(F)F)c4)c3)cc2-c2ccncc2)c1` was run?
**A.** 55.3%

System: HOP-62
Test: Growth inhibition of human HOP62 cells assessed as cell growth at 10 uM incubated for 48 hrs by sulforhodamine B assay relative to control
Format: functional
Conditions: HOP-62, 48 h, read-out: Activity

**Q.** `COc1cc(Cl)cc(-c2nn(-c3cccc(NC(=O)c4cc(C(F)(F)F)cc(C(F)(F)F)c4)c3)cc2-c2ccncc2)c1` was tested. Which growth at 10 µM did it give?
**A.** 103%

System: NCI-H226
Test: Growth inhibition of human NCI-H226 cells assessed as cell growth at 10 uM incubated for 48 hrs by sulforhodamine B assay relative to control
Format: functional
Conditions: NCI-H226, 48 h, read-out: Activity

**Q.** `COc1cc(Cl)cc(-c2nn(-c3cccc(NC(=O)c4cc(C(F)(F)F)cc(C(F)(F)F)c4)c3)cc2-c2ccncc2)c1` was tested. Which growth at 10 µM did it give?
**A.** 76%

System: NCI-H460
Test: Growth inhibition of human NCI-H460 cells assessed as cell growth at 10 uM incubated for 48 hrs by sulforhodamine B assay relative to control
Format: functional
Conditions: NCI-H460, 48 h, read-out: Activity

**Q.** How did the growth at 10 µM turn out when `COc1cc(Cl)cc(-c2nn(-c3cccc(NC(=O)c4cc(C(F)(F)F)cc(C(F)(F)F)c4)c3)cc2-c2ccncc2)c1` was run?
**A.** 41%

System: HCT-116
Test: Growth inhibition of human HCT116 cells assessed as cell growth at 10 uM incubated for 48 hrs by sulforhodamine B assay relative to control
Format: functional
Conditions: HCT-116, 48 h, read-out: Activity

**Q.** For `COc1cc(Cl)cc(-c2nn(-c3cccc(NC(=O)c4cc(C(F)(F)F)cc(C(F)(F)F)c4)c3)cc2-c2ccncc2)c1`, which growth at 10 µM is on record?
**A.** 35.2%

System: LOX IMVI
Test: Growth inhibition of human LOXIMVI cells assessed as cell growth at 10 uM incubated for 48 hrs by sulforhodamine B assay relative to control
Format: functional
Conditions: read-out: Activity

**Q.** `COc1cc(Cl)cc(-c2nn(-c3cccc(NC(=O)c4cc(C(F)(F)F)cc(C(F)(F)F)c4)c3)cc2-c2ccncc2)c1` was tested. Which growth at 10 µM did it give?
**A.** 76.1%

System: MDA-MB-435
Test: Growth inhibition of human MDA-MB-435 cells assessed as cell growth at 10 uM incubated for 48 hrs by sulforhodamine B assay relative to control
Format: functional
Conditions: MDA-MB-435, 48 h, read-out: Activity

**Q.** How did the growth at 10 µM turn out when `COc1cc(Cl)cc(-c2nn(-c3cccc(NC(=O)c4cc(C(F)(F)F)cc(C(F)(F)F)c4)c3)cc2-c2ccncc2)c1` was run?
**A.** 80%

System: UACC-257
Test: Growth inhibition of human UACC257 cells assessed as cell growth at 10 uM incubated for 48 hrs by sulforhodamine B assay relative to control
Format: functional
Conditions: UACC-257, 48 h, read-out: Activity

**Q.** How did the growth at 10 µM turn out when `COc1cc(Cl)cc(-c2nn(-c3cccc(NC(=O)c4cc(C(F)(F)F)cc(C(F)(F)F)c4)c3)cc2-c2ccncc2)c1` was run?
**A.** 79.3%

System: UACC-62
Test: Growth inhibition of human UACC62 cells assessed as cell growth at 10 uM incubated for 48 hrs by sulforhodamine B assay relative to control
Format: functional
Conditions: UACC-62, 48 h, read-out: Activity

**Q.** With `COc1cc(Cl)cc(-c2nn(-c3cccc(NC(=O)c4cc(C(F)(F)F)cc(C(F)(F)F)c4)c3)cc2-c2ccncc2)c1` as the molecule, how does the growth at 10 µM read?
**A.** 81.4%

System: IGROV-1
Test: Growth inhibition of human IGROV1 cells assessed as cell growth at 10 uM incubated for 48 hrs by sulforhodamine B assay relative to control
Format: functional
Conditions: IGROV-1, 48 h, read-out: Activity

**Q.** `COc1cc(Cl)cc(-c2nn(-c3cccc(NC(=O)c4cc(C(F)(F)F)cc(C(F)(F)F)c4)c3)cc2-c2ccncc2)c1` was tested. Which growth at 10 µM did it give?
**A.** 100%

System: OVCAR-3
Test: Growth inhibition of human OVCAR3 cells assessed as cell growth at 10 uM incubated for 48 hrs by sulforhodamine B assay relative to control
Format: functional
Conditions: OVCAR-3, 48 h, read-out: Activity

**Q.** With `COc1cc(Cl)cc(-c2nn(-c3cccc(NC(=O)c4cc(C(F)(F)F)cc(C(F)(F)F)c4)c3)cc2-c2ccncc2)c1` as the molecule, how does the growth at 10 µM read?
**A.** 25.5%

System: NCI/ADR-RES
Test: Growth inhibition of human NCI/ADR-RES cells assessed as cell growth at 10 uM incubated for 48 hrs by sulforhodamine B assay relative to control
Format: functional
Conditions: read-out: Activity

**Q.** Which growth at 10 µM does the source give for `COc1cc(Cl)cc(-c2nn(-c3cccc(NC(=O)c4cc(C(F)(F)F)cc(C(F)(F)F)c4)c3)cc2-c2ccncc2)c1` here?
**A.** 67.8%

System: SK-OV-3
Test: Growth inhibition of human SKOV3 cells assessed as cell growth at 10 uM incubated for 48 hrs by sulforhodamine B assay relative to control
Format: functional
Conditions: SK-OV-3, 48 h, read-out: Activity

**Q.** How did the growth at 10 µM turn out when `COc1cc(Cl)cc(-c2nn(-c3cccc(NC(=O)c4cc(C(F)(F)F)cc(C(F)(F)F)c4)c3)cc2-c2ccncc2)c1` was run?
**A.** 83.4%

System: 786-0
Test: Growth inhibition of human 786-0 cells assessed as cell growth at 10 uM incubated for 48 hrs by sulforhodamine B assay relative to control
Format: functional
Conditions: 786-0, 48 h, read-out: Activity

**Q.** `COc1cc(Cl)cc(-c2nn(-c3cccc(NC(=O)c4cc(C(F)(F)F)cc(C(F)(F)F)c4)c3)cc2-c2ccncc2)c1` was tested. Which growth at 10 µM did it give?
**A.** 80.2%

System: ACHN
Test: Growth inhibition of human ACHN cells assessed as cell growth at 10 uM incubated for 48 hrs by sulforhodamine B assay relative to control
Format: functional
Conditions: read-out: Activity

**Q.** How did the growth at 10 µM turn out when `COc1cc(Cl)cc(-c2nn(-c3cccc(NC(=O)c4cc(C(F)(F)F)cc(C(F)(F)F)c4)c3)cc2-c2ccncc2)c1` was run?
**A.** 58.2%

System: CAKI-1
Test: Growth inhibition of human Caki1 cells assessed as cell growth at 10 uM incubated for 48 hrs by sulforhodamine B assay relative to control
Format: functional
Conditions: CAKI-1, 48 h, read-out: Activity

**Q.** Which growth at 10 µM does the source give for `COc1cc(Cl)cc(-c2nn(-c3cccc(NC(=O)c4cc(C(F)(F)F)cc(C(F)(F)F)c4)c3)cc2-c2ccncc2)c1` here?
**A.** 68.6%

System: RXF 393
Test: Growth inhibition of human RXF393 cells assessed as cell growth at 10 uM incubated for 48 hrs by sulforhodamine B assay relative to control
Format: functional
Conditions: RXF 393, 48 h, read-out: Activity

**Q.** How did the growth at 10 µM turn out when `COc1cc(Cl)cc(-c2nn(-c3cccc(NC(=O)c4cc(C(F)(F)F)cc(C(F)(F)F)c4)c3)cc2-c2ccncc2)c1` was run?
**A.** 67.7%

System: SN12C
Test: Growth inhibition of human SN12C cells assessed as cell growth at 10 uM incubated for 48 hrs by sulforhodamine B assay relative to control
Format: functional
Conditions: read-out: Activity

**Q.** With `COc1cc(Cl)cc(-c2nn(-c3cccc(NC(=O)c4cc(C(F)(F)F)cc(C(F)(F)F)c4)c3)cc2-c2ccncc2)c1` as the molecule, how does the growth at 10 µM read?
**A.** 69.8%

System: UO-31
Test: Growth inhibition of human UO31 cells assessed as cell growth at 10 uM incubated for 48 hrs by sulforhodamine B assay relative to control
Format: functional
Conditions: UO-31, 48 h, read-out: Activity

**Q.** Which growth at 10 µM does the source give for `COc1cc(Cl)cc(-c2nn(-c3cccc(NC(=O)c4cc(C(F)(F)F)cc(C(F)(F)F)c4)c3)cc2-c2ccncc2)c1` here?
**A.** 54.3%

System: DU-145
Test: Growth inhibition of human DU145 cells assessed as cell growth at 10 uM incubated for 48 hrs by sulforhodamine B assay relative to control
Format: functional
Conditions: DU-145, 48 h, read-out: Activity

**Q.** Which growth at 10 µM does the source give for `COc1cc(Cl)cc(-c2nn(-c3cccc(NC(=O)c4cc(C(F)(F)F)cc(C(F)(F)F)c4)c3)cc2-c2ccncc2)c1` here?
**A.** 78.2%

System: MDA-MB-468
Test: Growth inhibition of human MDA-MB-468 cells assessed as cell growth at 10 uM incubated for 48 hrs by sulforhodamine B assay relative to control
Format: functional
Conditions: MDA-MB-468, 48 h, read-out: Activity

**Q.** With `COc1cc(Cl)cc(-c2nn(-c3cccc(NC(=O)c4cc(C(F)(F)F)cc(C(F)(F)F)c4)c3)cc2-c2ccncc2)c1` as the molecule, how does the growth at 10 µM read?
**A.** 46.5%

Source: ChEMBL document CHEMBL4308841, “Synthesis, in vitro antiproliferative activity, and kinase inhibitory effects of pyrazole-containing diarylureas and diarylamides” (Eur J Med Chem, 2018)
